Counter-ions that a name gives are not always drawn. Like-named read-outs stand apart in the source and are kept apart here.
What was measured:
[1] = target: T1, SARS-CoV-2 PLpro (nsp3 1564–1878) (Severe acute respiratory syndrome coronavirus 2, UniProt P0DTD1); test: biochemical; set-up: FRET-quenched peptide (Pro3) cleavage by PLpro, 10 min pre-incubation, slope over 20 min, normalised to no-compound control; conditions: low concentration screen, read-out: % of control remaining
[2] = target: T1, SARS-CoV-2 PLpro (nsp3 1564–1878); test: biochemical; set-up: FRET-quenched peptide (Pro3) cleavage by PLpro, 10 min pre-incubation, slope over 20 min, normalised to no-compound control; conditions: high concentration screen, read-out: % of control remaining

Structure (SMILES): C#CCNCc1cc2cc(OCc3ccccc3)ccc2[nH]1 [N-((5-(benzyloxy)-1H-indol-2-yl)methyl)prop-2-yn-1-amine]
- remaining activity at 1.25 µM ([1]; Well no.=5630): 95.4%
- remaining activity at 3.75 µM ([2]; Well no.=5630): 96.5%

Structure (SMILES): O=C(O)CCC(=O)Nc1ccc(S(=O)(=O)Nc2nccs2)cc1 [Succinylsulfathiazole]
- remaining activity at 1.25 µM ([1]; Well no.=8034): 89.3%
- remaining activity at 3.75 µM ([2]; Well no.=8034): 89.7%

Structure (SMILES): N=C1CCCN1Cc1[nH]c(=O)[nH]c(=O)c1Cl [Tipiracil hydrochloride]
- remaining activity at 1.25 µM ([1]; Well no.=8154): 95.9%
- remaining activity at 3.75 µM ([2]; Well no.=8154): 95.8%

Structure (SMILES): CC(C)(O)CC(=O)O [3-Hydroxyisovaleric acid]
- remaining activity at 1.25 µM ([1]; Well no.=6925): 108%
- remaining activity at 3.75 µM ([2]; Well no.=6925): 98.6%

Structure (SMILES): CSc1ccc(/C=C2/C(C)=C(CC(=O)O)c3cc(F)ccc32)cc1 [Sulindac sulfide]
- remaining activity at 1.25 µM ([1]; Well no.=6089): 96.2%
- remaining activity at 3.75 µM ([2]; Well no.=6089): 93.8%

Structure (SMILES): O[C@H]1[C@H]2c3cc4c(cc3CN3CCC(=C[C@@H]1O)[C@H]23)OCO4 [Lycorine]
- remaining activity at 1.25 µM ([1]; Well no.=3379): 99.9%
- remaining activity at 3.75 µM ([2]; Well no.=3379): 99.5%

Structure (SMILES): O=C(CCc1ccc(CN[C@H](C(=O)OC2CCCC2)C2CCCCC2)cn1)NO [HDAC-IN-3]
- remaining activity at 1.25 µM ([1]; Well no.=8172): 105%
- remaining activity at 3.75 µM ([2]; Well no.=8172): 104%

Structure (SMILES): O=c1[nH]c(=O)n([C@H]2C[C@H](O)[C@@H](CO)O2)cc1Br [5-BrdU]
- remaining activity at 1.25 µM ([1]; Well no.=7862): 96%
- remaining activity at 3.75 µM ([2]; Well no.=7862): 97.6%

Structure (SMILES): Cc1ccc2c(c1)C1(CCN(CCc3nc(-c4ccccc4)oc3C)CC1)OC(=O)N2 [RS 504393]
- remaining activity at 1.25 µM ([1]; Well no.=8391): 99.2%
- remaining activity at 3.75 µM ([2]; Well no.=8391): 95.2%

Structure (SMILES): O=C[C@H](O)[C@@H](O)[C@H](O)[C@H](O)COP(=O)(O)O [D-Glucose 6-Phosphate]
- remaining activity at 1.25 µM ([1]; Well no.=7263): 98.2%
- remaining activity at 3.75 µM ([2]; Well no.=7263): 98.1%

Structure (SMILES): CC12CCC(CC1)C(C)(C)O2 [Eucalyptol]
- remaining activity at 1.25 µM ([1]; Well no.=6874): 99.2%
- remaining activity at 3.75 µM ([2]; Well no.=6874): 99.2%

Structure (SMILES): CC(C)C[C@H](NC(=O)CNC(=O)c1cc(Cl)ccc1Cl)B(O)O [MLN2238]
- remaining activity at 1.25 µM ([1]; Well no.=4808): 96.1%
- remaining activity at 3.75 µM ([2]; Well no.=4808): 97.1%

Structure (SMILES): CC1(C)CN2C(CSC(=NC3CCCCC3)NC3CCCCC3)=CSC2=N1 [IT1t (dihydrochloride)]
- remaining activity at 1.25 µM ([1]; Well no.=6942): 94.3%
- remaining activity at 1.25 µM ([1]; Well no.=8463): 107%
- remaining activity at 3.75 µM ([2]; Well no.=6942): 93.3%
- remaining activity at 3.75 µM ([2]; Well no.=8463): 106%

Structure (SMILES): CNCCCC12CCC(c3ccccc31)c1ccccc12 [Maprotiline.HCl]
- remaining activity at 1.25 µM ([1]; Well no.=1787): 95.1%
- remaining activity at 3.75 µM ([2]; Well no.=1787): 96.8%

Structure (SMILES): Cc1nc(N=Nc2ccc(S(=O)(=O)O)cc2S(=O)(=O)O)c(COP(=O)(O)O)c(C=O)c1O [PPADS]
- remaining activity at 1.25 µM ([1]; Well no.=1217): 102%
- remaining activity at 3.75 µM ([2]; Well no.=1217): 101%

Structure (SMILES): CC[N+](C)(C)c1cccc(O)c1 [Edrophonium chloride]
- remaining activity at 1.25 µM ([1]; Well no.=555): 99.7%
- remaining activity at 3.75 µM ([2]; Well no.=555): 100%

Structure (SMILES): C/C=C(\C)C(=O)N[C@@H](c1ccccc1)[C@@H](O)C(=O)O[C@H]1C[C@@]2(O)[C@@H](OC(=O)c3ccccc3)[C@@H]3[C@]4(OC(C)=O)CO[C@@H]4C[C@H](O)[C@@]3(C)C(=O)[C@H](OC(C)=O)C(=C1C)C2(C)C [Cephalomannine]
- remaining activity at 1.25 µM ([1]; Well no.=5204): 97.2%
- remaining activity at 3.75 µM ([2]; Well no.=5204): 99.1%

Structure (SMILES): COc1ccc2ccc(=O)oc2c1CC=C(C)C [Osthole]
- remaining activity at 1.25 µM ([1]; Well no.=3440): 91.5%
- remaining activity at 1.25 µM ([1]; Well no.=8333): 98.6%
- remaining activity at 3.75 µM ([2]; Well no.=3440): 88.2%
- remaining activity at 3.75 µM ([2]; Well no.=8333): 94.5%

Structure (SMILES): CN1[C@@H]2C[C@@H](OC(=O)[C@H](CO)c3ccccc3)C[C@H]1[C@@H]1O[C@@H]12 [Scopolamine (hydrobromide)]
- remaining activity at 1.25 µM ([1]; Well no.=6670): 102%
- remaining activity at 3.75 µM ([2]; Well no.=6670): 105%

Structure (SMILES): C=CCN1CC[C@]23CCCC[C@H]2[C@H]1Cc1ccc(O)cc13 [Levallorphan tartrate]
- remaining activity at 1.25 µM ([1]; Well no.=1012): 99.1%
- remaining activity at 3.75 µM ([2]; Well no.=1012): 99.9%

Structure (SMILES): CC(=O)[C@H]1CC[C@H]2[C@@H]3CC[C@H]4C[C@](C)(O)CC[C@]4(C)[C@H]3CC[C@]12C [Ganaxolone]
- remaining activity at 1.25 µM ([1]; Well no.=5901): 96.3%
- remaining activity at 3.75 µM ([2]; Well no.=5901): 94%

Structure (SMILES): Cn1cc(CNCC2CCN(c3ncc(C(=O)NO)cn3)CC2)c2ccccc21 [JNJ-26481585]
- remaining activity at 1.25 µM ([1]; Well no.=5224): 98.6%
- remaining activity at 3.75 µM ([2]; Well no.=5224): 98.4%

Structure (SMILES): COc1cc2nc(N3CCN(C(=O)C4COc5ccccc5O4)CC3)nc(N)c2cc1OC (stereo not drawn) [Doxazosin (mesylate)]
- remaining activity at 1.25 µM ([1]; Well no.=8187): 105%
- remaining activity at 3.75 µM ([2]; Well no.=8187): 102%

Structure (SMILES): CO[C@H]1O[C@@H]2O[C@@]3(C)CC[C@H]4[C@H](C)CC[C@@H]([C@H]1C)[C@@]24OO3 [Artemether (SM-224)]
- remaining activity at 1.25 µM ([1]; Well no.=5188): 94.9%
- remaining activity at 3.75 µM ([2]; Well no.=5188): 97.4%

Structure (SMILES): CCCn1c(=O)c2[nH]c(-c3ccc(OCC(=O)Nc4ccc(C(C)=O)cc4)cc3)nc2n(CCC)c1=O [MRS-1706]
- remaining activity at 1.25 µM ([1]; Well no.=8511): 102%
- remaining activity at 3.75 µM ([2]; Well no.=8511): 105%

Structure (SMILES): C/C=C(/C)C(=O)O[C@H]1CC(C)=CC(=O)[C@@]2(C)CC[C@@](O)(C(C)C)[C@H]12 [Lapidin]
- remaining activity at 1.25 µM ([1]; Well no.=3159): 105%
- remaining activity at 3.75 µM ([2]; Well no.=3159): 105%

Structure (SMILES): COc1ccc(Nc2nc(N)nc(CN3CCCCC3)n2)cc1 [BRD32048]
- remaining activity at 1.25 µM ([1]; Well no.=5572): 91.7%
- remaining activity at 3.75 µM ([2]; Well no.=5572): 98.9%

Structure (SMILES): CCOc1cc(C(C)(C)C)ccc1C1=N[C@@](C)(c2ccc(Cl)cc2)[C@@](C)(c2ccc(Cl)cc2)N1C(=O)N1CCN(CCCS(C)(=O)=O)CC1 [RG7112]
- remaining activity at 1.25 µM ([1]; Well no.=6676): 94.8%
- remaining activity at 3.75 µM ([2]; Well no.=6676): 94%

Structure (SMILES): COc1cccc(OC)c1OCCNCC1COc2ccccc2O1 (stereo not drawn) [WB-4101 hydrochloride]
- remaining activity at 1.25 µM ([1]; Well no.=443): 96%
- remaining activity at 3.75 µM ([2]; Well no.=443): 99.1%

Structure (SMILES): NCC(O)c1ccccc1 (stereo not drawn) [2-Amino-1-phenylethanol]
- remaining activity at 1.25 µM ([1]; Well no.=7217): 95.5%
- remaining activity at 3.75 µM ([2]; Well no.=7217): 96.7%

Structure (SMILES): CN1C[C@H](C(=O)N[C@]2(C)O[C@@]3(O)[C@@H]4CCCN4C(=O)[C@H](Cc4ccccc4)N3C2=O)C[C@@H]2c3cccc4[nH]cc(c34)C[C@H]21 [Dihydroergotamine (mesylate)]
- remaining activity at 1.25 µM ([1]; Well no.=6947): 92.6%
- remaining activity at 3.75 µM ([2]; Well no.=6947): 92.7%

Structure (SMILES): Cc1cc(Nc2ncc3cc(-c4c(Cl)cccc4Cl)c(=O)n(C)c3n2)ccc1F [PD-180970]
- remaining activity at 1.25 µM ([1]; Well no.=5604): 100%
- remaining activity at 3.75 µM ([2]; Well no.=5604): 96.4%

Structure (SMILES): COc1ccc(C(=O)CC2(O)C(=O)Nc3c(Cl)ccc(Cl)c32)cc1 (stereo not drawn) [YK-4-279]
- remaining activity at 1.25 µM ([1]; Well no.=6444): 97.8%
- remaining activity at 3.75 µM ([2]; Well no.=6444): 98.7%

Structure (SMILES): c1ccc2c(c1)OCC(CN1CCCCC1)O2 (stereo not drawn) [Piperoxan (hydrochloride)]
- remaining activity at 1.25 µM ([1]; Well no.=7383): 106%
- remaining activity at 3.75 µM ([2]; Well no.=7383): 105%

From paper PMC8286840, “Identifying SARS-CoV-2 antiviral compounds by screening for small molecule inhibitors of Nsp3 papain-like protease” (Biochemical Journal, 2021)
